Values quoted from earlier work, collected in PubChem BioAssay AID1259409 (Chemical Carcinogenesis Research Information System (CCRIS), 2018).
Several values for one entry are separate records, joined by “and”; a condition that tells them apart may be missing. Identical values can stand only once.

Test system: rodent chemically induced tumor inhibition, incidence and multiplicity
Experiment: CCRIS tumor inhibitor studies
Conditions: Dose [Inhibitor]: 0, Species: MOUSE

C=Cc1ccc2ccc3cccc4ccc1c2c34
tumour outcome (control, treated, inhibition, significance) (Carcinogen: 7,12-DIMETHYLBENZ[A]ANTHRACENE, 57-97-6, 44 NMOL IN 0.2 ML ACETONE APPLIED TO BACK ONCE 5 MIN PRIOR TO CARCINOGEN DOSE (STUDY DURATION: 26 WK), Route [Inhibitor]: DERMAL, Strain/Sex: SENCAR/FEMALE, Target Tissue: Type of Lesion: SKIN: PAPILLOMA, Dose [Carcinogen]: 10 NMOL IN 0.2 ML ACETONE APPLIED TO BACK ONCE.): 100%, 100%, 0%, not significant | tumour outcome (control, treated, inhibition, significance) (Carcinogen: 7,12-DIMETHYLBENZ[A]ANTHRACENE, 57-97-6, 440 NMOL IN 0.2 ML ACETONE APPLIED TO BACK ONCE 5 MIN PRIOR TO CARCINOGEN DOSE (STUDY DURATION: 26 WK), Route [Inhibitor]: DERMAL, Strain/Sex: SENCAR/FEMALE, Target Tissue: Type of Lesion: SKIN: PAPILLOMA, Dose [Carcinogen]: 10 NMOL IN 0.2 ML ACETONE APPLIED TO BACK ONCE.): 100%, 92%, 8%, not calculated | tumour outcome (control, treated, inhibition, significance) (Carcinogen: 7,12-DIMETHYLBENZ[A]ANTHRACENE, 57-97-6, 4400 NMOL IN 0.2 ML ACETONE APPLIED TO BACK ONCE 5 MIN PRIOR TO CARCINOGEN DOSE (STUDY DURATION: 20 WK), Route [Inhibitor]: DERMAL, Strain/Sex: SENCAR/FEMALE, Target Tissue: Type of Lesion: SKIN: PAPILLOMA, Dose [Carcinogen]: 10 NMOL IN 0.2 ML ACETONE APPLIED TO BACK ONCE.): 100%, 68%, 32%, not calculated | tumour outcome (control, treated, inhibition, significance) (Carcinogen: 7,12-DIMETHYLBENZ[A]ANTHRACENE, 57-97-6, 4400 NMOL IN 0.2 ML ACETONE APPLIED TO BACK ONCE 5 MIN PRIOR TO CARCINOGEN DOSE (STUDY DURATION: 26 WK), Route [Inhibitor]: DERMAL, Strain/Sex: SENCAR/FEMALE, Target Tissue: Type of Lesion: SKIN: PAPILLOMA, Dose [Carcinogen]: 10 NMOL IN 0.2 ML ACETONE APPLIED TO BACK ONCE.): 100%, 79%, 21%, not calculated | tumour outcome (control, treated, inhibition, significance) (Carcinogen: 7,12-DIMETHYLBENZ[A]ANTHRACENE, 57-97-6, 44000 NMOL IN 0.2 ML ACETONE APPLIED TO BACK ONCE 5 MIN PRIOR TO CARCINOGEN DOSE (STUDY DURATION: 20 WK), Route [Inhibitor]: DERMAL, Strain/Sex: SENCAR/FEMALE, Target Tissue: Type of Lesion: SKIN: PAPILLOMA, Dose [Carcinogen]: 10 NMOL IN 0.2 ML ACETONE APPLIED TO BACK ONCE.): 100%, 24%, 76%, not calculated | tumour outcome (control, treated, inhibition, significance) (Carcinogen: BENZO[A]PYRENE, 50-32-8, 2200 NMOL IN 0.2 ML ACETONE APPLIED TO BACK ONCE 5 MIN PRIOR TO CARCINOGEN DOSE (STUDY DURATION: 26 WK), Route [Inhibitor]: DERMAL, Strain/Sex: SENCAR/FEMALE, Target Tissue: Type of Lesion: SKIN: PAPILLOMA, Dose [Carcinogen]: 200 NMOL IN 0.2 ML ACETONE APPLIED TO BACK ONCE.): 100%, 95%, 5%, not calculated | tumour outcome (control, treated, inhibition, significance) (Carcinogen: BENZO[A]PYRENE, 50-32-8, 4400 NMOL IN 0.2 ML ACETONE APPLIED TO BACK ONCE 5 MIN PRIOR TO CARCINOGEN DOSE (STUDY DURATION: 20 WK), Route [Inhibitor]: DERMAL, Strain/Sex: SENCAR/FEMALE, Target Tissue: Type of Lesion: SKIN: PAPILLOMA, Dose [Carcinogen]: 200 NMOL IN 0.2 ML ACETONE APPLIED TO BACK ONCE., Promoter: PHORBOLMYRISTATE ACETATE, 16561-29-8): 75%, 64%, 15%, not calculated | tumour outcome (control, treated, inhibition, significance) (Carcinogen: BENZO[A]PYRENE, 50-32-8, 22000 NMOL IN 0.2 ML ACETONE APPLIED TO BACK ONCE 5 MIN PRIOR TO CARCINOGEN DOSE (STUDY DURATION: 26 WK), Route [Inhibitor]: DERMAL, Strain/Sex: SENCAR/FEMALE, Target Tissue: Type of Lesion: SKIN: PAPILLOMA, Dose [Carcinogen]: 200 NMOL IN 0.2 ML ACETONE APPLIED TO BACK ONCE.): 100%, 59%, 41%, not calculated | tumour outcome (control, treated, inhibition, significance) (Carcinogen: BENZO[A]PYRENE, 50-32-8, 44000 NMOL IN 0.2 ML ACETONE APPLIED TO BACK ONCE 5 MIN PRIOR TO CARCINOGEN DOSE (STUDY DURATION: 20 WK), Route [Inhibitor]: DERMAL, Strain/Sex: SENCAR/FEMALE, Target Tissue: Type of Lesion: SKIN: PAPILLOMA, Dose [Carcinogen]: 200 NMOL IN 0.2 ML ACETONE APPLIED TO BACK ONCE): 75%, 59%, 21%, not calculated | tumour outcome (control, treated, inhibition, significance) (Carcinogen: BENZO[A]PYRENE, 50-32-8, 44000 NMOL IN 0.2 ML ACETONE APPLIED TO BACK ONCE 5 MIN PRIOR TO CARCINOGEN DOSE (STUDY DURATION: 26 WK), Route [Inhibitor]: DERMAL, Strain/Sex: SENCAR/FEMALE, Target Tissue: Type of Lesion: SKIN: PAPILLOMA, Dose [Carcinogen]: 200 NMOL IN 0.2 ML ACETONE APPLIED TO BACK ONCE.): 100%, 38%, 62%, not calculated | tumour outcome (control, treated, inhibition, significance) (Carcinogen: N-METHYL-N'-NITRO-N-NITROSOGUANIDINE, 70-25-7, 22000 NMOL IN 0.2 ML ACETONE APPLIED TO BACK ONCE 5 MIN PRIOR TO CARCINOGEN DOSE (STUDY DURATION: 20 WK), Route [Inhibitor]: DERMAL, Strain/Sex: SENCAR/FEMALE, Target Tissue: Type of Lesion: SKIN: PAPILLOMA, Dose [Carcinogen]: 2500 NMOL IN 0.2 ML ACETONE APPLIED TO BACK ONCE.): 78%, 79%, -1%, not calculated

CCCCC/C=C/CC/C=C/CCCCCCC(=O)O
tumour outcome (control, treated, inhibition, significance) (Carcinogen: BENZO[A]PYRENE, 50-32-8, 0.1 ML IN 0.1 ML OLIVE OIL 4 AND 2 D PRIOR TO CARCINOGEN DOSE (CYCLE REPEATED 4 X) (STUDY DURATION: 23 WK), Route [Inhibitor]: GAVAGE, Strain/Sex: ICR/FEMALE, Target Tissue: Type of Lesion: STOMACH: PAPILLOMA, Dose [Carcinogen]: 2 MG IN 0.2 ML OLIVE OIL 1/WK FOR 4 WK): 91%, 71%, 22%, p<0.05 and 96%, 96%, 0% and 100%, 71%, 29%, p<0.05

CCCCC(O)CCC(=O)c1ccccc1 (stereo not given)
tumour outcome (control, treated, inhibition, significance) (Carcinogen: 4-(METHYLNITROSAMINO)-1-(3-PYRIDYL)-1-BUTANONE, 64091-91-4, 25 UMOL IN 0.1 ML CORN OIL ONCE 2 HR PRIOR TO CARCINOGEN DOSE (STUDY DURATION: 16 WK), Route [Inhibitor]: GAVAGE, Strain/Sex: STRAIN-A/FEMALE, Target Tissue: Type of Lesion: LUNG: TUMOR, Dose [Carcinogen]: 10 UMOL IN 0.1 ML SALINE ONCE, Promoter: NONE USED): 100%, 100%, 0%, not significant

CC(/C=C/C=C(\C)C(=O)O)=C\C=C\C=C(C)\C=C\C=C(/C)C(=O)O
tumour outcome (control, treated, inhibition, significance) (Carcinogen: BENZO[A]PYRENE, 50-32-8, 0.2 UMOL IN 0.2 ML ACETONE 2/WK FOR 20 WK ADMINISTERED CONCURRENTLY WITH PROMOTER (STUDY DURATION: 21 WK), Route [Inhibitor]: DERMAL, Strain/Sex: CD-1/FEMALE, Target Tissue: Type of Lesion: SKIN: PAPILLOMA, Dose [Carcinogen]: 20 NMOL IN 0.2 ML ACETONE 1/WK FOR 10 WK, Promoter: 12-O-TETRADECANOYLPHORBOL-13-ACETATE, 16561-29-8): 100%, 53%, 47%, not calculated | tumour outcome (control, treated, inhibition, significance) (Carcinogen: BENZO[A]PYRENE, 50-32-8, 1 UMOL IN 0.2 ML ACETONE 2/WK FOR 20 WK ADMINISTERED CONCURRENTLY WITH PROMOTER (STUDY DURATION: 21 WK), Route [Inhibitor]: DERMAL, Strain/Sex: CD-1/FEMALE, Target Tissue: Type of Lesion: SKIN: PAPILLOMA, Dose [Carcinogen]: 20 NMOL IN 0.2 ML ACETONE 1/WK FOR 10 WK, Promoter: 12-O-TETRADECANOYLPHORBOL-13-ACETATE, 16561-29-8): 100%, 28%, 72%, not calculated
